molecular target: T1, IC-GPCR2 (Homo sapiens, UniProt Q8TDV5, S309L); assay: Stimulation of cAMP in CHO cells stably expressing IC-GPCR2 (HTRF cAMP assay); assay type: cell-based; design: key to Activity at 10 uM: *: no activity observed when tested at 10 micromolar but no higher concentrations were tested; conditions: 0.5 h, 30 minutes, IC-GPCR2 stably expressing CHO cells, read-out: Activity at 10 uM (% change in FRET signal from DMSO control)
T1 construct: expressed in transfected cells
T1 sequence (Q8TDV5 1-335 S309L): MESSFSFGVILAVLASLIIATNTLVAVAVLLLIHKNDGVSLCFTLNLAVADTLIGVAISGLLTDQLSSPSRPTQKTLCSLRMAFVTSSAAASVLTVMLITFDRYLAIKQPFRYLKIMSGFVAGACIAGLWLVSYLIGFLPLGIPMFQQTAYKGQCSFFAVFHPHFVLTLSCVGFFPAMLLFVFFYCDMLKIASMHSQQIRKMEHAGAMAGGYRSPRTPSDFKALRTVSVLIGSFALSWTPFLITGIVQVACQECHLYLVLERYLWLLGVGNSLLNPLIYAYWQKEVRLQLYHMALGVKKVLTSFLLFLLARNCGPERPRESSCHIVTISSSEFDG
Summary of the method: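 CHO cells stably expressing IC-GPCR2, plated at 17500 cells/well, treated next day for 30 min in Ham's F12 with compounds at 6–8 concentrations from 0.00003 to 10 μM; parental CHO cells also screened. Intracellular cAMP read by HTRF competitive immunoassay (665/620 nm ratio). Activity given as % FRET change from DMSO control.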

Point of comparison: `FC(F)(F)c1cnc(N2CCC(c3nc(COc4ccc(-n5cnnn5)cc4)cs3)CC2)c(Cl)c1` [Example 193, 3′-Chloro-4-[4-(4-tetrazol-1-yl-phenoxymethyl)-thiazol-2-yl]-5′-trifluoromethyl-3,4,5,6-tetrahydro-2H-[1,2′]bipyridinyl], activation at 10 µM 35%. Against it:
- CC(C)c1cnc(N2CCC(c3nc(COc4ccc(-n5cnnn5)cc4F)cs3)CC2)nc1 [Example 162, 2-{4-[4-(2-Fluoro-4-tetrazol-1-yl-phenoxymethyl)-thiazol-2-yl]-piperidin-1-yl}-5-isopropyl-pyrimidine] — higher, 79%
- CCc1cnc(N2CCC(c3nc(COc4ccc(-n5cnnn5)cc4C)cs3)CC2)nc1 [Example 164, 5-Ethyl-2-{4-[4-(2-methyl-4-tetrazol-1-yl-phenoxymethyl)-thiazol-2-yl]-piperidin-1-yl}-pyrimidine] — higher, 68%
- Clc1cnc(N2CCC(c3nc(COc4ccc(-n5cnnn5)cc4Cl)cs3)CC2)nc1 [Example 165, 5-Chloro-2-{4-[4-(2-chloro-4-tetrazol-1-yl-phenoxymethyl)-thiazol-2-yl]-piperidin-1-yl}-1-pyrimidine] — higher, 71%
- FC(F)(F)c1cnc(N2CCC(c3nc(COc4ccc(-n5cnnn5)cc4Cl)cs3)CC2)nc1 [Example 166, 2-{4-[4-(2-Chloro-4-tetrazol-1-yl-phenoxymethyl)-thiazol-2-yl]-piperidin-1-yl}-5-trifluoromethyl-pyrimidine] — higher, 74%
- CCc1cnc(N2CCC(c3nc(COc4ccc(-n5cnnn5)cc4)co3)CC2)nc1 [Example 169, 5-Ethyl-2-{4-[4-(4-tetrazol-1-yl-phenoxymethyl)-oxazol-2-yl]-piperidin-1-yl}-pyrimidine] — higher, 85%
- CCc1cnc(N2CCC(c3nc(COc4ccc(-n5cnnn5)cc4F)co3)CC2)nc1 [Example 170, 5-Ethyl-2-{4-[4-(2-fluoro-4-tetrazol-1-yl-phenoxymethyl)-oxazol-2-yl]-piperidin-1-yl}-pyrimidine] — higher, 75%
- Fc1cc(-n2cnnn2)ccc1OCc1csc(C2CCN(c3ncc(C(F)(F)F)cn3)CC2)n1 [Example 171, 2-{4-[4-(2-Fluoro-4-tetrazol-1-yl-phenoxymethyl)-thiazol-2-yl]-piperidin-1-yl}-5-trifluoromethyl-pyrimidine] — higher, 76%
- COC(=O)c1cc(C)nc(N2CCC(c3nc(COc4ccc(-n5cnnn5)cc4)cs3)CC2)n1 [Example 173, 6-Methyl-2-{4-[4-(4-tetrazol-1-yl-phenoxymethyl)-thiazol-2-yl]-piperidin-1-yl}-pyrimidine-4-carboxylic acid methyl ester] — higher, 75%
- Cc1cc(C(=O)O)nc(N2CCC(c3nc(COc4ccc(-n5cnnn5)cc4)cs3)CC2)n1 [Example 176, 6-Methyl-2-{4-[4-(4-tetrazol-1-yl-phenoxymethyl)-thiazol-2-yl]-piperidin-1-yl}-pyrimidine-4-carboxylic acid] — higher, 43%
- Fc1ccnc(N2CCC(c3nc(COc4ccc(-n5cnnn5)cc4)cs3)CC2)n1 [Example 178, 4-Fluoro-2-{4-[4-(4-tetrazol-1-yl-phenoxymethyl)-thiazol-2-yl]-piperidin-1-yl}-pyrimidine] — higher, 39%
- CCOC(=O)c1cnc(N2CCC(c3nc(COc4ccc(-n5cnnn5)cc4)cs3)CC2)s1 [Example 180, 2-{4-[4-(4-Tetrazol-1-yl-phenoxymethyl)-thiazol-2-yl]-piperidin-1-yl}-thiazole-5-carboxylic acid ethyl ester] — higher, 59%
- CCc1cnc(N2CCC(c3nc(COc4ccc(-n5cnnn5)nc4)cs3)CC2)nc1 [Example 182, 5-Ethyl-2-{4-[4-(6-tetrazol-1-yl-pyridin-3-yloxymethyl)-thiazol-2-yl]-piperidin-1-yl}-pyrimidine] — higher, 78%
- Cc1cnc(N2CCC(c3nc(COc4ccc(-n5cnnn5)nc4)cs3)CC2)nc1 [Example 183, 5-Methyl-2-{4-[4-(6-tetrazol-1-yl-pyridin-3-yloxymethyl)-thiazol-2-yl]-piperidin-1-yl}-pyrimidine] — higher, 78%
- Clc1cnc(N2CCC(c3nc(COc4ccc(-n5cnnn5)nc4)cs3)CC2)nc1 [Example 184, 5-Chloro-2-{4-[4-(6-tetrazol-1-yl-pyridin-3-yloxymethyl)-thiazol-2-yl]-piperidin-1-yl}-pyrimidine] — higher, 69%
- FC(F)(F)c1cnc(N2CCC(c3nc(COc4ccc(-n5cnnn5)nc4)cs3)CC2)nc1 [Example 185, 2-{4-[4-(6-Tetrazol-1-yl-pyridin-3-yloxymethyl)-thiazol-2-yl]-piperidin-1-yl}-5-trifluoromethyl-pyrimidine] — higher, 83%
- Clc1ccc(N2CCC(c3nc(COc4ccc(-n5cnnn5)cc4)cs3)CC2)nn1 [Example 186, 3-Chloro-6-{4-[4-(4-tetrazol-1-yl-phenoxymethyl)-thiazol-2-yl]-piperidin-1-yl}-pyridazine] — higher, 80%
- c1cc(-n2cnnn2)ccc1OCc1csc(C2CCN(c3cnc(-n4cnnn4)cn3)CC2)n1 [Example 187, 2-Tetrazol-1-yl-5-{4-[4-(4-tetrazol-1-yl-phenoxymethyl)-thiazol-2-yl]-piperidin-1-yl}-pyrazine] — higher, 75%
- CCc1cnc(N2CCC(c3nc(CNc4ccc(F)nc4)cs3)CC2)nc1 [Example 188, {2-[1-(5-Ethyl-pyrimidin-2-yl)-piperidin-4-yl]-thiazol-4-ylmethyl}-(6-fluoro-pyridin-3-yl)-amine] — higher, 69%
- CCc1cnc(N2CCC(c3nc(COc4c(F)cc(S(C)(=O)=O)cc4F)cs3)CC2)nc1 [Example 189, 2-{4-[4-(2,6-Difluoro-4-methanesulfonyl-phenoxymethyl)-thiazol-2-yl]-piperidin-1-yl}-5-ethyl-pyrimidine] — higher, 76%
- CCCCc1cnc(N2CCC(c3nc(COc4ccc(-n5cnnn5)cc4)cs3)CC2)nc1 [Example 190, 5-Butyl-2-{4-[4-(4-tetrazol-1-yl-phenoxymethyl)-thiazol-2-yl]-piperidin-1-yl}-pyrimidine] — higher, 77%
- CCc1cnc(N2CCC(c3nc(COc4ccc(N5CCOCC5)cc4)cs3)CC2)nc1 [Example 191, 4-(4-{2-[1-(5-Ethyl-pyrimidin-2-yl)-piperidin-4-yl]-thiazol-4-ylmethoxy}-phenyl)-morpholine] — higher, 74%
- O=[N+]([O-])c1cnc(N2CCC(c3nc(COc4ccc(-n5cnnn5)cc4)cs3)CC2)nc1 [Example 192, 5-Nitro-2-{4-[4-(4-tetrazol-1-yl-phenoxymethyl)-thiazol-2-yl]-piperidin-1-yl}-pyrimidine] — higher, 74%
- Fc1cc(-n2cnnn2)ccc1OCc1csc(C2CCN(c3ncc(C(F)(F)F)cc3Cl)CC2)n1 [Example 194, 3′-Chloro-4-[4-(2-fluoro-4-tetrazol-1-yl-phenoxymethyl)-thiazol-2-yl]-5′-trifluoromethyl-3,4,5,6-tetrahydro-2H-[1,2′]bipyridinyl] — lower, 29%
- Fc1cc(-n2cnnn2)ccc1OCc1csc(C2CCN(c3ncc(Cl)cn3)CC2)n1 [Example 195, 5-Chloro-2-{4-[4-(2-fluoro-4-tetrazol-1-yl-phenoxymethyl)-thiazol-2-yl]-piperidin-1-yl}-pyrimidine] — higher, 68%
- Clc1cnc(N2CCC(c3nc(COc4ccc(-n5cnnn5)cc4)cs3)CC2)c(Cl)c1 [Example 196, 3′,5′-Dichloro-4-[4-(4-tetrazol-1-yl-phenoxymethyl)-thiazol-2-yl]-3,4,5,6-tetrahydro-2H-[1,2′]bipyridinyl] — lower, 19%
- COC(=O)c1cc(Cl)cnc1N1CCC(c2nc(COc3ccc(-n4cnnn4)cc3)cs2)CC1 [Example 198, 5′-Chloro-4-[4-(4-tetrazol-1-yl-phenoxymethyl)-thiazol-2-yl]-3,4,5,6-tetrahydro-2H-[1,2′]bipyridinyl-3′-carboxylic acid methyl ester] — lower, 15%
- CCc1cnc(N2CCC(c3nc(COCc4ccc(S(C)(=O)=O)cc4)cs3)CC2)nc1 [Example 203, 5-Ethyl-2-{4-[4-(4-methanesulfonyl-benzyloxymethyl)-thiazol-2-yl]-piperidin-1-yl}-pyrimidine] — higher, 76%
- FC(F)(F)c1cnc(N2CCC(c3nc(COc4ccc(-n5cnnn5)cc4)cs3)CC2)nc1 [Example 205] — higher, 75%

same assay, conditions: symbol entry

For `CCOC(=O)c1cnc(N2CCC(c3nc(COc4ccc(-n5cnnn5)cc4)cs3)CC2)c(Cl)c1` [Example 197, 3′-Chloro-4-[4-(4-tetrazol-1-yl-phenoxymethyl)-thiazol-2-yl]-3,4,5,6-tetrahydro-2H-[1,2′]bipyridinyl-5′-carboxylic acid ethyl ester], the “Activity at 10 uM” value was “*”.
